For orientation: melting point means the temperature, or range, at which the solid turns liquid.

Results on one molecule are retold here after patent US6531468B2, “Diazabicyclooctane derivatives and therapeutic uses thereof” (Pfizer Inc, priority 2000, dated 2003).

Where a name gives a salt, the structure may show the parent alone.

`Fc1ccc(N2CC3CCC2CN3)cc1` (stereo not shown) (as salt: salt) registered a melting point of 154 to 156 °C.
